From US20220072015A1, “Methods of Inhibiting Pathological Angiogenesis” (Unity Biotechnology, Inc., priority 2017, published 2022)

Key:
[1] = system: senescent fibroblasts (SnCs), IMR90 cells; test: Senolytic activity: killing irradiated senescent IMR90 fibroblasts vs replicating or quiescent fibroblasts (CellTiter-Glo); assay type: cell-based, human; conditions: for Best SI: specificity for senescent cells vs replicating or quiescent fibroblasts, 1.0 = non-specific; for senolytic activity, potency: result in words
Excerpt: Human fibroblast IMR90 cells can be obtained from the American Type Culture Collection (ATCC®) with the designation CCL-186. The cells are maintained at <75% confluency in DMEM containing FBS and Pen/Strep in an atmosphere of 3% O2, 10% CO2, and ˜95% humidity. The cells are divided into three groups: irradiated cells (cultured for 14 days after irradiation prior to use), proliferating normal cells (cultured at low density for one day prior to use), and quiescent cells (cultured at high density for four day prior to use).
On day 0, the irradiated cells are prepared as follows. IMR90 cells are washed, placed in T175 flasks at a density of 50,000 cells per mL, and irradiated at 10-15 Gy. Following irradiation, the cells are plated at 100 μL in 96-well plates. On days 1, 3, 6, 10, and 13, the medium in each well is aspirated and replaced with fresh medium.
On day 10, the quiescent healthy cells are prepared as follows. IMR90 cells are washed, combined with 3 mL of TrypLE trypsin-containing reagent (Thermofisher Scientific, Waltham, Mass.) and cultured for 5 min until the cells have rounded up and begin to detach from the plate. Cells are dispersed, counted, and prepared in medium at a concentration of 50,000 cells per mL. 100 μL of the cells is plated in each well of a 96-well plate. Medium is changed on day 13.
On day 13, the proliferating healthy cell population is prepared as follows. Healthy IMR90 cells are washed, combined with 3 mL of TrypLE and cultured for 5 minutes until the cells have rounded up and begin to detach from the plate. Cells are dispersed, counted, and prepared in medium at a concentration of 25,000 cells per mL. 100 μL of the cells is plated in each well of a 96-well plate.
On day 14, test Bcl-2 inhibitors or MDM2 inhibitors are combined with the cells as follows. A DMSO dilution series of each test compound is prepared at 200 times the final desired concentration in a 96-well PCR plate. Immediately before use, the DMSO stocks are diluted 1:200 into prewarmed complete medium. Medium is aspirated from the cells in each well, and 100 μL/well of the compound containing medium is added.
Candidate senolytic agents for testing are cultured with the cells for 6 days, replacing the culture medium with fresh medium and the same compound concentration on day 17. Bcl-2 inhibitors like 001967 are cultured with the cells for 3 days. The assay system uses the properties of a thermostable luciferase to enable reaction conditions that generate a stable luminescent signal while simultaneously inhibiting endogenous ATPase released during cell lysis. At the end of the culture period, 100 μL of CellTiter-Glo® reagent (Promega Corp., Madison, Wis.) is added to each of the wells. The cell plates are placed for 30 seconds on an orbital shaker, and luminescence is measured.
Furthermore, even if the compound is potent, it would not be suitable for use as a therapeutic unless it preferentially kills senescent cells with a high degree of selectivity. Accordingly, compounds in the library showing high Bcl binding affinity were further screened for their ability to kill irradiated fibroblasts, in comparison with replicating fibroblasts or fibroblasts that were quiescent (due to confluence) but not senescent.

Bcl isoforms = test: Binding affinity for the Bcl isoforms; conditions: result in words
Excerpt: The ability of candidate compounds to inhibit Bcl-2 and Bcl-xL activity can be measured on the molecular level by direct binding. This assay uses a homogenous assay technology based on oxygen channeling that is marketed by PerkinElmer Inc., Waltham, Mass.: see Eglin et al., Current Chemical Genomics, 2008, 1, 2-10. The test compound is combined with the target Bcl protein and a peptide representing the corresponding cognate ligand, labeled with biotin. The mixture is then combined with streptavidin bearing luminescent donor beads and luminescent acceptor beads, which proportionally reduces luminescence if the compound has inhibited the peptide from binding to the Bcl protein.
Bcl-2, Bcl-xL and Bcl-w are available from Sigma-Aldrich Co., St. Louis, Mo. Biotinylated BIM peptide (ligand for Bcl-2) and BAD peptide (ligand for Bcl-xL) are described in US 2016/0038503 A1. AlphaScreen® Streptavidin donor beads and Anti-6×His AlphaLISA® acceptor beads are available from PerkinElmer.
To conduct the assay, a 1:4 dilution series of the compound is prepared in DMSO, and then diluted 1:100 in assay buffer. In a 96-well PCR plate, the following are combined in order: 10 μL peptide (120 nM BIM or […]), 10 μL test compound, and 10 μL Bcl protein (0.8 nM Bcl-2/W or 0.4 nM Bcl-XL). The assay plate is incubated in the dark at room temperature for 24 h. The next day, donor beads and acceptor beads are combined, and 5 μL is added to each well. After incubating in the dark for 30 minute, luminescence is measured using a plate reader, and the affinity or degree of inhibition by each test compound is determined.

**Q.** For `CCn1c(C)c(C(=O)O)c(-c2cccc(N3CCN(c4ccc(NS(=O)(=O)c5ccc(N[C@H](CCN6CCC(O)CC6)CSc6ccccc6)c(S(=O)(=O)C(F)(F)F)c5)cc4)CC3)c2)c1-c1ccc(Cl)cc1` [BM-957], which “Best SI” value [1] is on record?
**A.** 11.7

**Q.** `Cc1c(C(=O)O)c(-c2cccc(N3CCN(c4ccc(NS(=O)(=O)c5ccc(N[C@H](CCN6CCC(O)CC6)CSc6ccccc6)c(S(=O)(=O)C(F)(F)F)c5)cc4)CC3)c2)c(-c2ccc(Cl)cc2)n1C(C)C` [BM-962] was tested. Which “Best SI” value [1] did it give?
**A.** 18.5

**Q.** How did the “Best SI” value [1] turn out when `CCn1c(C)c(S(C)(=O)=O)c(-c2cc(F)cc(N3CCN(c4ccc(NS(=O)(=O)c5ccc(N[C@H](CCN6CCC(O)CC6)CSc6ccccc6)c(S(=O)(=O)C(F)(F)F)c5)cc4)CC3)c2)c1-c1ccc(F)cc1` [BM-1192] was run?
**A.** 60.0

**Q.** Which results are given for `Cc1c(S(C)(=O)=O)c(-c2cc(F)cc(N3CCN(c4ccc(NS(=O)(=O)c5ccc(N[C@H](CCN6CCC(O)CC6)CSc6ccccc6)c(S(=O)(=O)C(F)(F)F)c5)cc4)CC3)c2)c(-c2ccc(F)cc2)n1C(C)C` [BM-1195]?
**A.** binding affinities (Ki) for the Bcl isoforms (Bcl isoforms): nanomole to picomole range; senolytic activity, potency [1]: potent in the nanomole range; Best SI [1]: 128.7

**Q.** For `Cc1c(S(C)(=O)=O)c(-c2cc(F)cc(N3CCN(c4ccc(NS(=O)(=O)c5ccc(N[C@H](CCN6CCC(O)CC6)CSc6ccccc6)c(S(=O)(=O)C(F)(F)F)c5)cc4)CC3)c2)c(-c2ccc(Cl)cc2)n1C(C)C` [BM-1197], which “binding affinities (Ki) for the Bcl isoforms” value (Bcl isoforms) is on record?
**A.** nanomole to picomole range

**Q.** And the “senolytic activity, potency” value [1]?
**A.** potent in the nanomole range

**Q.** And the “Best SI” value [1]?
**A.** 366.7

**Q.** Which results are given for `Cc1c(S(C)(=O)=O)c(-c2cc(F)cc(N3CCN(c4ccc(NS(=O)(=O)c5ccc(N[C@H](CCN6CCC(C(=O)O)CC6)CSc6ccccc6)c(S(=O)(=O)C(F)(F)F)c5)cc4)CC3)c2)c(-c2ccc(Cl)cc2)n1C(C)C` [BM-1244]?
**A.** binding affinities (Ki) for the Bcl isoforms (Bcl isoforms): nanomole to picomole range; Best SI [1]: 66.7
